The source of these data is US12495798B2, “Nicotinamide compound and herbicidal composition comprising compound” (KOREA RESEARCH INSTITUTE OF CHEMICAL TECHNOLOGY, priority 2019, dated 2025).

Common to all, as to assay type: in vivo
The test system of data set [1] is sorghum. The data set can be described thus: Herbicidal activity test against upland field weeds (foliar treatment test). More on the design: key to Foliar treatment herbicidal activity, Sorghum: 0 (no control); 100 (complete control). The conditions noted are these: 50 g ai/ha, scale 0-100; for plant injury at 50 g/ha: Sorghum. Summed up:
(§1)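 Greenhouse-grown plants (30±5 °C, 14/10 h light/dark) foliar hand-sprayed with compound in 50% acetone, 0.1% Tween-20 at 50 or 75 g a.i./ha. Control visually scored 0 (none) to 100 (complete) versus untreated after 14 days, or 21 days if needed.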

Data set [2] has as its system barnyard grass. The description is as above. The conditions noted are these: 50 g ai/ha, scale 0-100; for pest or weed control at 50 g/ha: Echinochloa crus-galli. Also noted: key to Foliar treatment herbicidal activity, barnyard grass: 0 (no control); 100 (complete control). In short, it runs like this: as §1
In data set [3] the test system is quack grass. The data set is described as above. Also noted: key to Foliar treatment herbicidal activity, quack grass: 0 (no control); 100 (complete control). The conditions noted are these: 50 g ai/ha, scale 0-100. Summed up: as §1
Data set [4] deals with crabgrass. The data set is described as above. The conditions noted are these: 50 g ai/ha, scale 0-100; for pest or weed control at 50 g/ha: Digitaria sanguinalis. In short, it runs like this: as §1
Data set [5] deals with fall panicum. The description is as above. The conditions noted are these: 50 g ai/ha, scale 0-100; for pest or weed control at 50 g/ha: Panicum dichotomiflorum. In short, it runs like this:
as §1

In data set [6] the test system is black nightshade. Described as above. The conditions noted are these: 50 g ai/ha, scale 0-100. Also noted: key to Foliar treatment herbicidal activity, black nightshade: 0 (no control); 100 (complete control). Summed up: as §1
Data set [7] has as its system indian jointvetch. The description is as above. Also noted: key to Foliar treatment herbicidal activity, Indian jointvetch: 0 (no control); 100 (complete control). The conditions noted are these: 50 g ai/ha, scale 0-100. In short, it runs like this: as §1
Data set [8] concerns velvetleaf. The description is as above. The conditions noted are these: 50 g ai/ha; for Foliar treatment herbicidal activity, velvet leaf: scale 0-100; for pest or weed control at 50 g/ha: Abutilon theophrasti, scale 0-100, read-out: Foliar treatment herbicidal activity, velvet leaf. Also noted: key to Foliar treatment herbicidal activity, velvet leaf: 0 (no control); 100 (complete control). Summed up:
as §1

Data set [9] deals with cocklebur. Described as above. The conditions noted are these: 50 g ai/ha, scale 0-100; for pest or weed control at 50 g/ha: Xanthium strumarium. Summed up: as §1
Data set [10] has as its system bindweed. The description is as above. The conditions noted are these: 50 g ai/ha, scale 0-100. In short, it runs like this:
as §1

Data set [11] concerns corn. Briefly: Phytotoxicity test for upland field crops (foliar treatment test). Also noted: key: 0 (no harm); 9 (complete withered). In short, it runs like this: (§2)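 Phytotoxicity was rated on a 0 (no harm) to 9 (complete withered) scale relative to untreated plants, 7 and 14 days after spraying. Crops had been grown in fertilized horticultural soil under greenhouse conditions before foliar application at 19˜300 g a.i./ha.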

Data set [12] concerns wheat. The data set is described as above. More on the design: key: 0 (no harm); 9 (complete withered). In short, it runs like this: as §2
The mark [13] stands for this setting: 50 g ai/ha, Corn (7 days after treatment).
[14] abbreviates: 50 g ai/ha, Corn (14 days after treatment).
[15] abbreviates: 100 g ai/ha, Corn (7 days after treatment).
The mark [16] stands for this setting: 100 g ai/ha, Corn (14 days after treatment).
Setting [17] is: 50 g ai/ha, Wheat (7 days after treatment).
Setting [18] is: 50 g ai/ha, Wheat (14 days after treatment).
Setting [19] is: 100 g ai/ha, Wheat (7 days after treatment).
The mark [20] stands for this setting: 100 g ai/ha, Wheat (14 days after treatment).

As for `Cn1nc(COCc2nc(C(F)(F)F)ccc2C(=O)Nc2nnnn2C)nc1I` [Compound No. 2-137], in [1], the “Foliar treatment herbicidal activity, Sorghum” value worked out at 60. In addition, the “Foliar treatment herbicidal activity, barnyard grass” value in data set [2] came to 95. In addition, the “Foliar treatment herbicidal activity, quack grass” value in [3] amounted to 0. Further, the “Foliar treatment herbicidal activity, Crabgrass” value in data set [4] was determined as 95. The “Foliar treatment herbicidal activity, Fall panicum” value in data set [5] was found to be 50. Moreover, the “Foliar treatment herbicidal activity, black nightshade” value in data set [6] was determined as 100. Besides, the “Foliar treatment herbicidal activity, Indian jointvetch” value in data set [7] is on record as 100. Besides, the “Foliar treatment herbicidal activity, velvet leaf” value in data set [8] was determined as 100. Further, the “Foliar treatment herbicidal activity, Cocklebur” value in [9] amounted to 98. In data set [10], the “Foliar treatment herbicidal activity, Bindweed” value worked out at 70. In addition, the “Foliar treatment phytotoxicity, Corn” value in data set [11] (setting [13]), in data set [11] (setting [14]), in [11] (setting [15]) and in data set [11] (setting [16]) was 0 each time. Besides, the “Foliar treatment phytotoxicity, Wheat” value in data set [12] (setting [17]), in [12] (setting [18]), in data set [12] (setting [19]) and in data set [12] (setting [20]) was 0 each time.
On to `C=Cc1nc(COCc2nc(C(F)(F)F)ccc2C(=O)Nc2nnnn2C)nn1C` [Compound No. 2-127, N-(1-methyl-1H-tetrazol-5-yl)-2-(((1-methyl-5-vinyl-1H-1,2,4-triazol-3-yl)methoxy)methyl)-6-(trifluoromethyl)nicotinamide], for which the plant injury (commonly how far the test organism was held down) at 50 g/ha in [1] was found to be 30%. The pest or weed control at 50 g/ha in [2] was 60%; in data set [4] it was 60%; in data set [5] it was 40%; in [6] (Solanum nigrum) it was 80%; in data set [7], 20%; in data set [8], 30%. The results for the pest or weed control at 50 g/ha in data set [9] and in [10] were 60% and 50%, respectively. Further, the “Foliar treatment herbicidal activity, quack grass” value in data set [3] turned out to be 0. In addition, the “Foliar treatment phytotoxicity, Corn” value in data set [11] (setting [13]), in data set [11] (setting [14]), in data set [11] (setting [15]) and in data set [11] (setting [16]) was 0 each time. Further, the “Foliar treatment phytotoxicity, Wheat” value in data set [12] (setting [17]), in [12] (setting [18]), in data set [12] (setting [19]) and in data set [12] (setting [20]) was 0 each time.
`C#CCn1nnnc1NC(=O)c1ccc(C(F)(F)F)nc1COCc1nc(C(F)(F)F)n(C)n1` [Compound No. 2-122]: in data set [1], the “Foliar treatment herbicidal activity, Sorghum” value was determined as 0. For the same compound, the “Foliar treatment herbicidal activity, barnyard grass” value in [2] is listed as 50. Also, the “Foliar treatment herbicidal activity, quack grass” value in data set [3] was found to be 30. In addition, the “Foliar treatment herbicidal activity, Crabgrass” value in data set [4] amounted to 20. Further, in data set [5], the “Foliar treatment herbicidal activity, Fall panicum” value amounted to 40. Also, in data set [6], the “Foliar treatment herbicidal activity, black nightshade” value is given as 95. In addition, the “Foliar treatment herbicidal activity, Indian jointvetch” value in data set [7] came out at 70. The “Foliar treatment herbicidal activity, velvet leaf” value in data set [8] turned out to be 50. Besides, the “Foliar treatment herbicidal activity, Cocklebur” value in data set [9] stood at 80. Also, the “Foliar treatment herbicidal activity, Bindweed” value in data set [10] stood at 70. The “Foliar treatment phytotoxicity, Corn” value in data set [11] (setting [13]), in data set [11] (setting [14]), in data set [11] (setting [15]) and in data set [11] (setting [16]) was 0 each time. Further, the “Foliar treatment phytotoxicity, Wheat” value in [12] (setting [17]), in data set [12] (setting [18]), in [12] (setting [19]) and in [12] (setting [20]) was 0 each time.
On to `CCCn1nnnc1NC(=O)c1ccc(C(F)(F)F)nc1COCc1nc(C(F)(F)F)n(C)n1` [Compound No. 2-120, 2-(((1-methyl-5-(trifluoromethyl)-1H-1,2,4-triazol-3-yl)methoxy)methyl)-N-(1-propyl-1H-tetrazol-5-yl)-6-(trifluoromethyl)nicotinamide], for which the plant injury at 50 g/ha in [1] was determined as 10%. Moreover, the pest or weed control at 50 g/ha turned out to be 80% in data set [2]; 10% in data set [3]; 95% in [4]; 90% in data set [5]; 60% in [7]; 80% in [8]. Besides, the pest or weed control at 50 g/ha in data set [9] was 90%; in [10], 50%. Also, in data set [6], the “Foliar treatment herbicidal activity, black nightshade” value stood at 100. The “Foliar treatment phytotoxicity, Corn” value in data set [11] (setting [13]), in [11] (setting [14]), in data set [11] (setting [15]) and in [11] (setting [16]) was 0 throughout. For the same compound, the “Foliar treatment phytotoxicity, Wheat” value in data set [12] (setting [17]), in [12] (setting [18]), in data set [12] (setting [19]) and in [12] (setting [20]) was 0 each time.
`C=CCn1nnnc1NC(=O)c1ccc(C(F)(F)F)nc1COCc1ncn(C)n1` [Compound No. 2-115, N-(1-allyl-1H-tetrazol-5-yl)-2-(((1-methyl-1H-1,2,4-triazol-3-yl)methoxy)methyl)-6-(trifluoromethyl)nicotinamide] yielded a plant injury at 50 g/ha in data set [1] of 10%. In addition, the “Foliar treatment herbicidal activity, barnyard grass” value in data set [2] is reported as 0. Also, in data set [3], the “Foliar treatment herbicidal activity, quack grass” value turned out to be 0. Moreover, the pest or weed control at 50 g/ha amounted to 20% in [4]; 50% in data set [5]; 50% in data set [8]; 90% in data set [9]; 80% in [10]. Also, the “Foliar treatment herbicidal activity, black nightshade” value in [6] came to 100. Moreover, the “Foliar treatment herbicidal activity, Indian jointvetch” value in data set [7] was found to be 0. The “Foliar treatment phytotoxicity, Corn” value in data set [11] (setting [13]), in data set [11] (setting [14]), in data set [11] (setting [15]) and in data set [11] (setting [16]) was 0 throughout. Besides, the “Foliar treatment phytotoxicity, Wheat” value in [12] (setting [17]), in [12] (setting [18]), in data set [12] (setting [19]) and in data set [12] (setting [20]) was 0 each time.
`COCn1nnc(COCc2nc(C(F)(F)F)ccc2C(=O)Nc2nnnn2C)n1` [Compound No. 2-91, 2-(((2-(methoxymethyl)-2H-tetrazol-5-yl)methoxy)methyl)-N-(1-methyl-1H-tetrazol-5-yl)-6-(trifluoromethyl)nicotinamide] gave a plant injury at 50 g/ha in data set [1] of 50%. Also, the pest or weed control at 50 g/ha in data set [2] stood at 80%; in [4] it was 90%; in [5] it was 70%; in data set [7], 95%; in data set [8], 98%; in data set [9] it was 98%. In data set [10], the pest or weed control at 50 g/ha was 70%. Further, the “Foliar treatment herbicidal activity, quack grass” value in [3] turned out to be 0. Moreover, in [6], the “Foliar treatment herbicidal activity, black nightshade” value is on record as 100. Moreover, the “Foliar treatment phytotoxicity, Corn” value in data set [11] (setting [13]) came to 2; in [11] (setting [14]), 1; in data set [11] (setting [15]) it was 3; in data set [11] (setting [16]) it was 3. In addition, the “Foliar treatment phytotoxicity, Wheat” value in data set [12] (setting [17]), in data set [12] (setting [18]), in [12] (setting [19]) and in data set [12] (setting [20]) was 0 throughout.
